Each structure is given as a SMILES string. Where “and” joins values, the source holds several entries; their conditions need not be identical. Equal entries are not always repeated. Toxic doses and inconclusive results are not listed.

These results are taken from PubChem BioAssay AID248 (DTP/NCI, 2004).

The assay concerns L1210 leukemia ip in BDF1 mice, survival T/C. Nature of the assay: NCI In Vivo Anticancer Drug Screen. Data for tumor model L1210 Leukemia (intraperitoneal) in B6D2F1 (BDF1) mice. Conditions: higher = longer survival. The procedure, abridged: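 Mice bearing the transplanted tumor received compound or vehicle. Survival of the treated group was divided by that of the vehicle-treated control group to give the ratio.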

[1] abbreviates: endpoint: mean survival time, dose: 100.0 mg/kg/injection, schedule: Q04DX003 (ip), vehicle: saline with Tween-80.
Where [2] appears, read: endpoint: mean survival time, dose: 200.0 mg/kg/injection, schedule: Q04DX003 (ip), vehicle: saline with Tween-80.
The mark [3] stands for this setting: endpoint: mean survival time, dose: 400.0 mg/kg/injection, schedule: Q04DX003 (ip), vehicle: saline with Tween-80.

Turning to `CC1SCC(NC(=O)N(CCCl)N=O)CS1` (stereo not drawn), the T/C reads like this: (endpoint: mean survival time, dose: 8.0 mg/kg/injection, schedule: Q01DX001 (ip), vehicle: saline with Tween-80) 150 % of control; (endpoint: mean survival time, dose: 12.0 mg/kg/injection, schedule: Q01DX001 (ip), vehicle: saline with Tween-80) 264 % of control; (endpoint: mean survival time, dose: 18.0 mg/kg/injection, schedule: Q01DX001 (ip), vehicle: saline with Tween-80) 389 % of control; (endpoint: mean survival time, dose: 26.0 mg/kg/injection, schedule: Q01DX001 (ip), vehicle: saline with Tween-80) 368 % of control; (endpoint: mean survival time, dose: 60.0 mg/kg/injection, schedule: Q01DX001 (ip), vehicle: saline with Tween-80) 104 % of control.

With `CC(=C/c1ccccc1)/C=N/N=C(N)N`, the T/C is, setting by setting: (endpoint: mean survival time, dose: 3.8 mg/kg/injection, schedule: Q01DX Z (ip), vehicle: saline) 97 % of control; (endpoint: mean survival time, dose: 7.5 mg/kg/injection, schedule: Q01DX Z (ip), vehicle: saline) 94 % of control; (endpoint: mean survival time, dose: 15.0 mg/kg/injection, schedule: Q01DX Z (ip), vehicle: saline) 90 % of control.

On to `CC1CC(C)(C)NC(=S)O1` (stereo not drawn), for which the T/C was 101 % of control (endpoint: mean survival time, dose: 15.0 mg/kg/injection, schedule: Q01DX001 (ip), vehicle: carboxymethylcellulose (CMC)) and 102 % of control (endpoint: mean survival time, dose: 30.0 mg/kg/injection, schedule: Q01DX001 (ip), vehicle: carboxymethylcellulose (CMC)).

For `CCCCc1ccc(Sc2cccc3c2C(=O)c2c(Sc4ccc(CCCC)cc4)cccc2C3=O)cc1`, the T/C reads like this: (endpoint: mean survival time, dose: 100.0 mg/kg/injection, schedule: Q01DX009 (ip), vehicle: saline with Tween-80) 97 % of control; under setting [1], 93 % of control; (endpoint: mean survival time, dose: 200.0 mg/kg/injection, schedule: Q01DX009 (ip), vehicle: saline with Tween-80) 102 % of control; under setting [2], 97 % of control; (endpoint: mean survival time, dose: 400.0 mg/kg/injection, schedule: Q01DX009 (ip), vehicle: saline with Tween-80) 92 % of control; under setting [3], 97 % of control.

Turning to `CC1(C)OC(COS(C)(=O)=O)C2OC(C)(C)OC(COS(C)(=O)=O)C2O1` (stereo not drawn), the T/C reads like this: (endpoint: mean survival time, dose: 100.0 mg/kg/injection, schedule: Q01DX001 (ip), vehicle: carboxymethylcellulose (CMC)) 104 % of control; (endpoint: mean survival time, dose: 200.0 mg/kg/injection, schedule: Q01DX001 (ip), vehicle: carboxymethylcellulose (CMC)) 101 % of control; (endpoint: mean survival time, dose: 400.0 mg/kg/injection, schedule: Q01DX001 (ip), vehicle: carboxymethylcellulose (CMC)) 104 % of control.

As for `O=C(Nc1ccccc1)OC1C=CC2CCC1C2` (stereo not drawn), the T/C was 90 % of control (endpoint: mean survival time, dose: 100.0 mg/kg/injection, schedule: Q01DX001 (ip), vehicle: saline); 87 % of control (endpoint: mean survival time, dose: 200.0 mg/kg/injection, schedule: Q01DX001 (ip), vehicle: saline); 87 % of control (endpoint: mean survival time, dose: 400.0 mg/kg/injection, schedule: Q01DX001 (ip), vehicle: saline).

`CN(N)C(=O)Nc1ccc(Cl)c(Cl)c1`: the T/C was 110 % of control (endpoint: mean survival time, dose: 75.0 mg/kg/injection, schedule: Q01DX001 (ip), vehicle: carboxymethylcellulose (CMC)) and 113 % of control (endpoint: mean survival time, dose: 150.0 mg/kg/injection, schedule: Q01DX001 (ip), vehicle: carboxymethylcellulose (CMC)).

With `CCOC(=O)/C=C(\CBr)OC`, the T/C is 105 % of control (endpoint: mean survival time, dose: 12.5 mg/kg/injection, schedule: Q01DX009 (ip), vehicle: Klucel (hydroxypropylcellulose) (HPC)); 98 % of control (endpoint: mean survival time, dose: 25.0 mg/kg/injection, schedule: Q01DX009 (ip), vehicle: Klucel (hydroxypropylcellulose) (HPC)); 90 % of control (endpoint: mean survival time, dose: 25.0 mg/kg/injection, schedule: Q04DX003 (ip), vehicle: Klucel (hydroxypropylcellulose) (HPC)); 94 % of control and 103 % of control (endpoint: mean survival time, dose: 50.0 mg/kg/injection, schedule: Q01DX009 (ip), vehicle: Klucel (hydroxypropylcellulose) (HPC)); 96 % of control (endpoint: mean survival time, dose: 50.0 mg/kg/injection, schedule: Q04DX003 (ip), vehicle: Klucel (hydroxypropylcellulose) (HPC)); 96 % of control (endpoint: mean survival time, dose: 100.0 mg/kg/injection, schedule: Q04DX003 (ip), vehicle: Klucel (hydroxypropylcellulose) (HPC)).

As for `O=C(O)C1CCC1C(=O)O` (stereo not drawn), the T/C (endpoint: mean survival time, dose: 100.0 mg/kg/injection, schedule: Q04DX002 (ip), vehicle: saline) was 90 % of control; the T/C (endpoint: mean survival time, dose: 200.0 mg/kg/injection, schedule: Q04DX002 (ip), vehicle: saline) is 90 % of control; the T/C (endpoint: mean survival time, dose: 400.0 mg/kg/injection, schedule: Q04DX002 (ip), vehicle: saline) is 87 % of control.

As to `CCOCc1cccc2ccccc12`, the T/C is, setting by setting: under setting [1], 106 % of control; under setting [2], 98 % of control; under setting [3], 102 % of control.

In the case of `CC1OC(OC2C(O)CC(OC3C(O)CC(OC4CCC5(C)C(CCC6C5CCC5(C)C(C7=CC(=O)OC7)CCC65O)C4)OC3C)OC2C)CC(O)C1O` (stereo not drawn), the T/C by setting is: (endpoint: mean survival time, dose: 1.0 mg/kg/injection, schedule: Q01DX015 (sc), vehicle: steriod suspending solution) 93 % of control; (endpoint: mean survival time, dose: 2.0 mg/kg/injection, schedule: Q01DX015 (sc), vehicle: steriod suspending solution) 98 % of control; (endpoint: mean survival time, dose: 4.0 mg/kg/injection, schedule: Q01DX015 (sc), vehicle: steriod suspending solution) 101 % of control; (endpoint: mean survival time, dose: 8.0 mg/kg/injection, schedule: Q01DX015 (sc), vehicle: steriod suspending solution) 102 % of control; (endpoint: mean survival time, dose: 10.0 mg/kg/injection, schedule: Q01DX001 (ip), vehicle: saline) 106 % of control; (endpoint: mean survival time, dose: 16.0 mg/kg/injection, schedule: Q01DX015 (sc), vehicle: steriod suspending solution) 105 % of control. Moreover, the T/C by setting is: (endpoint: mean survival time, dose: 20.0 mg/kg/injection, schedule: Q01DX001 (ip), vehicle: saline) 105 % of control; (endpoint: mean survival time, dose: 32.0 mg/kg/injection, schedule: Q01DX015 (sc), vehicle: steriod suspending solution) 101 % of control; (endpoint: mean survival time, dose: 40.0 mg/kg/injection, schedule: Q01DX001 (ip), vehicle: saline) 103 % of control; (endpoint: median survival time, dose: 0.5 mg/kg/injection, schedule: Q01DX005 (iv), vehicle: water) 99 % of control; (endpoint: median survival time, dose: 0.5 mg/kg/injection, schedule: Q01DX010 (ip), vehicle: methylcellulose (MC)) 91 % of control; (endpoint: median survival time, dose: 0.5 mg/kg/injection, schedule: Q01DX010 (ip), vehicle: water) 99 % of control and 100 % of control. For the same compound, the T/C is, setting by setting: (endpoint: median survival time, dose: 1.0 mg/kg/injection, schedule: Q01DX005 (iv), vehicle: water) 99 % of control; (endpoint: median survival time, dose: 1.0 mg/kg/injection, schedule: Q01DX010 (ip), vehicle: methylcellulose (MC)) 102 % of control; (endpoint: median survival time, dose: 1.0 mg/kg/injection, schedule: Q01DX010 (ip), vehicle: water) 99 % of control and 100 % of control; (endpoint: median survival time, dose: 1.0 mg/kg/injection, schedule: Q04DX003 (ip), vehicle: water) 99 % of control and 100 % of control; (endpoint: median survival time, dose: 1.0 mg/kg/injection, schedule: Q04DX003 (iv), vehicle: water) 96 % of control; (endpoint: median survival time, dose: 2.0 mg/kg/injection, schedule: Q01DX005 (ip), vehicle: water) 95 % of control. In addition, the T/C runs as follows: (endpoint: median survival time, dose: 2.0 mg/kg/injection, schedule: Q01DX005 (iv), vehicle: water) 100 % of control; (endpoint: median survival time, dose: 2.0 mg/kg/injection, schedule: Q01DX010 (ip), vehicle: methylcellulose (MC)) 104 % of control; (endpoint: median survival time, dose: 2.0 mg/kg/injection, schedule: Q01DX010 (ip), vehicle: water) 105 % of control and 111 % of control; (endpoint: median survival time, dose: 2.0 mg/kg/injection, schedule: Q04DX003 (ip), vehicle: water) 95 % of control; (endpoint: median survival time, dose: 2.0 mg/kg/injection, schedule: Q04DX003 (iv), vehicle: water) 92 % of control; (endpoint: median survival time, dose: 4.0 mg/kg/injection, schedule: Q01DX005 (ip), vehicle: water) 109 % of control. Besides, the T/C reads like this: (endpoint: median survival time, dose: 4.0 mg/kg/injection, schedule: Q01DX005 (iv), vehicle: water) 106 % of control; (endpoint: median survival time, dose: 4.0 mg/kg/injection, schedule: Q01DX010 (ip), vehicle: methylcellulose (MC)) 103 % of control; (endpoint: median survival time, dose: 4.0 mg/kg/injection, schedule: Q01DX010 (ip), vehicle: water) 102 % of control and 105 % of control; (endpoint: median survival time, dose: 4.0 mg/kg/injection, schedule: Q04DX003 (ip), vehicle: water) 100 % of control; (endpoint: median survival time, dose: 4.0 mg/kg/injection, schedule: Q04DX003 (iv), vehicle: water) 93 % of control; (endpoint: median survival time, dose: 8.0 mg/kg/injection, schedule: Q01DX005 (ip), vehicle: water) 113 % of control. For the same compound, the T/C (endpoint: median survival time, dose: 8.0 mg/kg/injection, schedule: Q01DX005 (iv), vehicle: water) was 86 % of control; the T/C (endpoint: median survival time, dose: 8.0 mg/kg/injection, schedule: Q01DX010 (ip), vehicle: water) is 102 % of control and 105 % of control; the T/C (endpoint: median survival time, dose: 8.0 mg/kg/injection, schedule: Q04DX003 (ip), vehicle: water) is 86 % of control; the T/C (endpoint: median survival time, dose: 8.0 mg/kg/injection, schedule: Q04DX003 (iv), vehicle: water) was 93 % of control; the T/C (endpoint: median survival time, dose: 16.0 mg/kg/injection, schedule: Q01DX010 (ip), vehicle: water) was 93 % of control and 94 % of control; the T/C (endpoint: median survival time, dose: 16.0 mg/kg/injection, schedule: Q04DX003 (ip), vehicle: water) was 93 % of control. The T/C (endpoint: median survival time, dose: 16.0 mg/kg/injection, schedule: Q04DX003 (iv), vehicle: water) was 68 % of control.
